Test results published in publication PMC8125951, “Exploring the 2′-Hydroxy-Chalcone Framework for the Development of Dual Antioxidant and Soybean Lipoxygenase Inhibitory Agents” (Molecules, 2021).

How the values were obtained:
[1] = Interaction with the stable free radical DPPH (reducing activity)
Experimental: The first assay refers to the interaction of the compounds with the stable free radical DPPH and it is a fast, simple, cost-effective, and widely used method, where the DPPH radical reacts directly with the antioxidant and is decolorized. This interaction indicates their radical scavenging ability in an iron-free system. The scavenging effect of the synthesized analogues on the DPPH radical was evaluated according to the methods of Hadjipavlou et al..
To an ethanolic solution of DPPH (100 μM) in absolute ethanol, an equal volume of the compounds dissolved in DMSO was added (100 μM). […]

[2] = Inhibition of linoleic acid lipid peroxidation induced by AAPH
Source text: The second technique is based on the ability of the compounds to inhibit lipid peroxidation of linoleic acid induced by 2,2′-Azobis(2-amidinopropane) dihydrochloride (AAPH) radical (Table 2). AAPH-induced linoleic acid oxidation has been developed as a quick and reliable method for measuring the antioxidant activity. The thermal free radical producer (AAPH) generates free radicals in the solution which cause the oxidation of linoleic acid, and the method is a measure of how effective antioxidants protect against lipid peroxidation in vitro. Oxidation of linoleic acid by AAPH is followed by UV spectrophotometry in a highly diluted sample [61].
2,2′-Azobis(2-amidinopropane) dihydrochloride (AAPH) was used as a free radical initiator. Ten microliters of the 16 mM linoleic acid sodium salt solution was added to the UV cuvette containing 0.93 mL of 0.05 M phosphate buffer, pH 7.4 prethermostated at 37 °C. The oxidation reaction was initiated at 37 °C under air by the addition of 50 μL of 40 mM AAPH solution. Oxidation was carried out in the presence of the synthesized compounds (10 μL, from a stock solution of 10 mM in DMSO). In the assay without antioxidant, lipid oxidation was measured in the presence of the same level of DMSO.

[3] = Competition of the tested compounds with DMSO for hydroxyl radicals; details: 100 μM
Source text: Among the reactive oxygen species (ROS), the hydroxyl (^•OH) free radical is possibly the most toxic, reacting with several biological important molecules such as DNA, lipids, or carbohydrates. Polyunsaturated fatty acids are particularly vulnerable by free radicals. Iron released from damaged cells is more likely to be readily available to catalyze the generation of ^•OH radicals. Thus, we tried to test the ability of our compounds to scavenge hydroxyl radicals determining the competition of selected chalcones and aurones with DMSO for hydroxyl radicals. Hydroxyl radicals were generated using the Fe^3+/ascorbic acid system and expressed as a percentage inhibition of formaldehyde production in the presence of each compound at 100 μM.
The hydroxyl radicals generated by the Fe^3+ / ascorbic acid system, were detected by the determination of formaldehyde produced from the oxidation of DMSO (Table 2). A negative control using the same % DMSO was used. Trolox was used as reference compound [75].

[4] = ABTS radical cation decolorization assay; details: 100 μM
Experimental: The ABTS radical cation decolorization assay was used as another antioxidant activity estimation protocol (Table 2). Oxidation of ABTS with potassium persulfate generates directly the radical with no involvement of an intermediate radical, which is then reduced upon adding electron-donating antioxidants.
In order to produce the ABTS radical cation (ABTS^+·), ABTS stock solution in water (7 mM) was mixed with potassium persulfate (2.45 mM) and left in the dark at room temperature for 12–16 h before use. Our published experimental technique was used (1). The results are recorded after 1 min of the mixing solutions at 734 nm. The results were compared to the appropriate standard inhibitor Trolox.

[5] = biological target: T1, soybean lipoxygenase (Glycine max, UniProt P08170); experiment: Soybean LOX inhibition study in vitro; assay type: biochemical; details: for inhibition at 100 µM: read-out: Inhibition of Soybean Lipoxygenase 100 μM (%)
T1 sequence (P08170 1-839): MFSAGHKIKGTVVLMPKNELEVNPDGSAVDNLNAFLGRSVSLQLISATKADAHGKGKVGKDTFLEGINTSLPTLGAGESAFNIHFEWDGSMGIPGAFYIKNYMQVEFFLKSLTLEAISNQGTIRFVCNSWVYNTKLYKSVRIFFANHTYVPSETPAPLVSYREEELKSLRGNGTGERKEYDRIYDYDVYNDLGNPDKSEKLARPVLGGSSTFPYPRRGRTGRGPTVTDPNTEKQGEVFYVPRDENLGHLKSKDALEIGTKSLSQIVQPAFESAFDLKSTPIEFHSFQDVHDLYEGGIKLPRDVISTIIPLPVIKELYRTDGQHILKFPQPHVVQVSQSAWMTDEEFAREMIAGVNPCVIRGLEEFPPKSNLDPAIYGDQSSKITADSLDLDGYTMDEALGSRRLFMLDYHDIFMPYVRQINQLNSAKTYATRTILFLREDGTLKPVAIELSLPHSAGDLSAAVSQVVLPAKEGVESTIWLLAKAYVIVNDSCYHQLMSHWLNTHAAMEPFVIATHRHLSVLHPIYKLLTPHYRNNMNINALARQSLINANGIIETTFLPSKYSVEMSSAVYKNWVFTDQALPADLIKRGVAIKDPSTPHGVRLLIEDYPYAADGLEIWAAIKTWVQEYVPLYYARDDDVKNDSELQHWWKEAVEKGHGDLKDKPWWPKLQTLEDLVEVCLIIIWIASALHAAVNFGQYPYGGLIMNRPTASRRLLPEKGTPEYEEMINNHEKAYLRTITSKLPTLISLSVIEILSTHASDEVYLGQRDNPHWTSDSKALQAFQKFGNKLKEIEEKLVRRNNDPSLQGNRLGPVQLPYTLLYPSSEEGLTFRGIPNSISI
Experimental: Furthermore, as an indication of their anti-inflammatory activity, all the molecules were tested as inhibitors of soybean lipoxygenase (LOX). The enzyme lipoxygenase catalyzes the first two steps in the metabolism of arachidonic acid, which is cleaved from membrane phospholipids to leukotrienes (LTB4). LTB4 generation is considered to be important in the pathogenesis of neutrophil-mediated inflammatory diseases. For this study, the UV absorbance-based soybean LOX assay was used, which is a plant enzyme with satisfactory homology with the human 5-LOX [61, 62, 63, 64, 65, 66].
The tested compounds dissolved in DMSO were incubated at room temperature with sodium linoleate (0.1 mL) and 0.2 mL of enzyme solution ([…] in saline) in Tris buffer pH 9.

Structure (SMILES)	Interaction with the Free Radical DPPH (%) ([1]; 100 μM, 20 min)	Interaction with the Free Radical DPPH (%) ([1]; 100 μM, 60 min)	Inhibition of Lipid Peroxidation of Linoleic Acid Induced by AAPH Radical (%) ([2]; 0 min)	Inhibition of Lipid Peroxidation of Linoleic Acid Induced by AAPH Radical (%) ([2]; 100 μM)	Inhibition of Lipid Peroxidation of Linoleic Acid Induced by AAPH Radical (%) ([2]; 3 min)	Inhibition of Lipid Peroxidation of Linoleic Acid Induced by AAPH Radical (%) ([2]; 6 min)	Inhibition of Lipid Peroxidation of Linoleic Acid Induced by AAPH Radical (%) ([2]; 9 min)	HO· (%) competition with DMSO for hydroxyl radicals [3]	ABTS+· % [4]	IC50 ([5]; read-out: Inhibition of Soybean Lipoxygenase IC50)	Interaction with the Free Radical DPPH (%) ([1]; 0 min)	Interaction with the Free Radical DPPH (%) ([1]; 3 min)	Interaction with the Free Radical DPPH (%) ([1]; 6 min)	Interaction with the Free Radical DPPH (%) ([1]; 9 min)	inhibition at 100 µM ([5]; at 100 μM)	Inhibition of Soybean Lipoxygenase 100 μM (%) ([5]; at 100 μM)
O=C(/C=C/c1ccc(O)c(O)c1)c1cc(Br)ccc1O [Compound 4b, 5′-bromo-2′,3,4-trihydroxy-chalcone]	82.4%	82.0%	81.8%	82.3%	82.6%	82.5%	81.5%	100%	inactive and no	70 µM	–	–	–	–	–	–
O=C(/C=C/c1ccc(O)c(O)c1)c1ccc(O)cc1O [Compound 4a, 2′,3,4,4′-tetrahydroxy-chalcone]	95.7%	95.3%	–	24.4%	–	–	–	68%	86%	–	95.4%	95.4%	94.9%	95.4%	39.3%	–
COCOc1ccc(C(=O)/C=C/c2ccc(OCOC)c(OCOC)c2)c(O)c1 [Compound 3a, 2′-hydroxy-4′,3,4-methoxymethoxy-chalcone]	–	21.6%	–	11.4%	–	–	–	40%	93%	–	–	–	–	–	40.2%	–
O=C1/C(=C/c2ccc(O)c(O)c2)Oc2cc(O)ccc21 [Compound 7a, 3′,4′,6-Trihydroxy-Aurone]	89%	91.2%	–	53.2%	–	–	–	inactive and no	71%	–	92.3%	94.4%	94.9%	94.9%	24.5%	–
COc1cc(OC)c(OC)cc1/C=C1\Oc2ccccc2C1=O [Compound 6b, 2′,4′,5′-trimethoxy-aurone]	no interaction and did not show any DPPH radical scavenging ability and no	no	–	29.4%	–	–	–	no	64%	–	–	–	–	–	13%	–
O=C1/C(=C/c2cc(O)c(O)cc2O)Oc2ccccc21 [Compound 7b, 2′,4′,5′-Trihydroxy-Aurone]	100%	100%	–	–	–	–	–	77%	no	–	98.2%	99.3%	99.5%	99.8%	–	no
COCOc1ccc2c(c1)O/C(=C\c1ccc(OCOC)c(OCOC)c1)C2=O [Compound 6a, 3′,4′,6-tri(methoxymethoxy)-aurone]	no interaction and did not show any DPPH radical scavenging ability and no	no	–	18.5%	–	–	–	43%	86%	–	–	–	–	–	24.4%	–
